≈ marks a conversion by molar mass, not a printed value. Where two headings read alike, the source gives them in different places.
Key:
Assay type in all cases: cell-based
[1] = system: Bacteroides fragilis GAI 0675; test: in vitro antibacterial activity on anaerobic bacteria (MIC); details: GAI0675; Bacteroides fragilis GAI 0675, anaerobic; read-out: Antimicrobial spectrum MIC
Procedure: (§1) The in vitro antibacterial activities of the compounds provided by the present invention were tested by a standard method of Chemotherapy Society of Japan, i.e. an agar plate dilution method disclosed in CHEMOTHERAPY Vol. 29, pages 76–79, 1981, and the activities of them on anaerobic bacteria were tested by a method disclosed in CHEMOTHERAPY Vol. 27, 559–590, 1979. The results were shown in terms of the minimum inhibition concentration (MIC, μg/ml) for the growth of the bacteria.

[2] = system: Bacteroides thetaiotaomicron ATCC 29741; test: as above
Procedure: as §1

[3] = system: Propionibacterium acnes JCM 6425; test: as above; details: Cutibacterium acnes, JCM6425; Propionibacterium acnes JCM 6425, anaerobic; read-out: Antimicrobial spectrum MIC
Procedure: as §1

[4] = system: Enterococcus faecalis RIMD 3116001; test: in vitro antibacterial activity, agar plate dilution method (MIC); details: RIMD3116001, read-out: Antimicrobial spectrum MIC
Procedure: as §1

[5] = system: Staphylococcus aureus IFO 13276; test: as above; details: IFO13276, read-out: Antimicrobial spectrum MIC
Procedure: as §1

[6] = system: Klebsiella pneumoniae IID 865; test: as above; details: IID865, read-out: Antimicrobial spectrum MIC
Procedure: as §1

[7] = system: Branhamella catarrhalis IID 5233; test: as above; details: Moraxella catarrhalis, IID5233, read-out: Antimicrobial spectrum MIC
Procedure: as §1

[8] = system: Staphylococcus epidermidis IFO 12993; test: as above; details: IFO12993, read-out: Antimicrobial spectrum MIC
Procedure: as §1

[9] = system: Escherichia coli IFO 12734; test: as above; details: IFO12734, read-out: Antimicrobial spectrum MIC
Procedure: as §1

[10] = system: Staphylococcus aureus IID 803(Smith); test: as above; details: IID803, read-out: Antimicrobial spectrum MIC
Procedure: as §1

[11] = system: Micrococcus luteus KI 3122; test: as above; details: KI3122, read-out: Antimicrobial spectrum MIC
Procedure: as §1

[12] = system: Enterococcus faecalis CSJ 1212; test: as above; details: CSJ1212, read-out: Antimicrobial spectrum MIC
Procedure: as §1

[13] = system: Staphylococcus aureus Clin-211(MRSA); test: as above; details: read-out: Antimicrobial spectrum MIC
Procedure: as §1

[14] = system: Haemophilus influenzae IID 984; test: as above; details: IID984, read-out: Antimicrobial spectrum MIC
Procedure: as §1

[15] = system: Bacillus subtilis JCM 2499; test: as above; details: JCM2499, read-out: Antimicrobial spectrum MIC
Procedure: as §1

[16] = system: Pseudomonas aeruginosa CSJ 1853; test: as above; details: CSJ1853, read-out: Antimicrobial spectrum MIC
Procedure: as §1

[17] = system: Streptococcus pneumoniae IID 553; test: as above; details: IID553, read-out: Antimicrobial spectrum MIC
Procedure: as §1

[18] = system: Staphylococcus aureus JCM 2874; test: as above; details: JCM2874, read-out: Antimicrobial spectrum MIC
Procedure: as §1

[19] = ATCC29741, Bacteroides thetaiotaomicron ATCC 29741, anaerobic, read-out: Antimicrobial spectrum MIC

MIC [1] [µg/mL]	MIC [2, 19] [µg/mL]	MIC [3] [µg/mL]	MIC [4] [µg/mL]	MIC [5] [µg/mL]	MIC [6] [µg/mL]	MIC [7] [µg/mL]	MIC [8] [µg/mL]	MIC [9] [µg/mL]	MIC [10] [µg/mL]	MIC [11] [µg/mL]	MIC [12] [µg/mL]	MIC [13] [µg/mL]	MIC [14] [µg/mL]	MIC [15] [µg/mL]	MIC [16] [µg/mL]	MIC [17] [µg/mL]	MIC [18] [µg/mL]	SMILES	MIC ([2]; Bacteroides thetaiotaomicron, ATCC29741, read-out: Antimicrobial spectrum MIC) [µg/mL]
0.125 (≈ 0.33 µM)	0.25 (≈ 0.661 µM)	0.016 (≈ 0.0423 µM)	0.063 (≈ 0.166 µM)	≤ 0.004	0.063 (≈ 0.166 µM)	0.016 (≈ 0.0423 µM)	0.008 (≈ 0.0211 µM)	0.125 (≈ 0.33 µM)	≤ 0.004	0.125 (≈ 0.33 µM)	0.063 (≈ 0.166 µM)	0.031 (≈ 0.0819 µM)	0.031 (≈ 0.0819 µM)	≤ 0.004	1 (≈ 2.64 µM)	0.125 (≈ 0.33 µM)	≤ 0.004	Cc1c(-c2ccc(NCCO)cc2)ccn2c(=O)c(C(=O)O)cc(C3CC3)c12 [Example 46, 1-cyclopropyl-8-[4-(2-hydroxyethylamino)phenyl]-9-methyl-4-oxo-4H-quinolizine-3-carboxylic acid]	–
0.063 (≈ 0.181 µM)	0.25 (≈ 0.718 µM)	0.031 (≈ 0.089 µM)	1 (≈ 2.87 µM)	0.008 (≈ 0.023 µM)	0.016 (≈ 0.0459 µM)	0.063 (≈ 0.181 µM)	0.016 (≈ 0.0459 µM)	0.125 (≈ 0.359 µM)	0.008 (≈ 0.023 µM)	0.125 (≈ 0.359 µM)	0.5 (≈ 1.44 µM)	0.063 (≈ 0.181 µM)	0.125 (≈ 0.359 µM)	≤ 0.004	1 (≈ 2.87 µM)	1 (≈ 2.87 µM)	0.008 (≈ 0.023 µM)	Cc1ccc(-c2ccn3c(=O)c(C(=O)O)cc(C4CC4)c3c2C)cc1N [Example 63, 8-(3-Amino-4-methylphenyl)-1-cyclopropyl-9-methyl-4-oxo-4H-quinolizine-3-carboxylic acid]	–
0.5 (≈ 1.49 µM)	1 (≈ 2.98 µM)	0.5 (≈ 1.49 µM)	0.5 (≈ 1.49 µM)	0.031 (≈ 0.0924 µM)	0.016 (≈ 0.0477 µM)	0.125 (≈ 0.373 µM)	0.125 (≈ 0.373 µM)	0.25 (≈ 0.745 µM)	0.063 (≈ 0.188 µM)	0.5 (≈ 1.49 µM)	0.25 (≈ 0.745 µM)	0.5 (≈ 1.49 µM)	0.031 (≈ 0.0924 µM)	0.016 (≈ 0.0477 µM)	1 (≈ 2.98 µM)	0.5 (≈ 1.49 µM)	0.063 (≈ 0.188 µM)	Cc1c(-c2ccc(N)nc2)ccn2c(=O)c(C(=O)O)cc(C3CC3)c12 [Example 89, 8-(6-Aminopyridin-3-yl)-1-cyclopropyl-9-methyl-4-oxo-4H-quinolizine-3-carboxylic acid]	–
0.5 (≈ 1.33 µM)	1 (≈ 2.66 µM)	0.5 (≈ 1.33 µM)	1 (≈ 2.66 µM)	0.063 (≈ 0.167 µM)	0.031 (≈ 0.0823 µM)	0.125 (≈ 0.332 µM)	0.125 (≈ 0.332 µM)	0.5 (≈ 1.33 µM)	0.063 (≈ 0.167 µM)	1 (≈ 2.66 µM)	0.5 (≈ 1.33 µM)	1 (≈ 2.66 µM)	0.063 (≈ 0.167 µM)	0.031 (≈ 0.0823 µM)	1 (≈ 2.66 µM)	0.5 (≈ 1.33 µM)	0.125 (≈ 0.332 µM)	Cc1c(-c2cccc(CN(C)C)c2)ccn2c(=O)c(C(=O)O)cc(C3CC3)c12 [Example 117, 1-Cyclopropyl-8-(3-dimethylaminomethylphenyl)-9-methyl-4-oxo-4H-quinolizine-3-carboxylic acid]	–
1 (≈ 2.4 µM)	2 (≈ 4.79 µM)	2 (≈ 4.79 µM)	1 (≈ 2.4 µM)	0.063 (≈ 0.151 µM)	0.063 (≈ 0.151 µM)	0.25 (≈ 0.599 µM)	0.125 (≈ 0.299 µM)	1 (≈ 2.4 µM)	0.063 (≈ 0.151 µM)	1 (≈ 2.4 µM)	0.5 (≈ 1.2 µM)	1 (≈ 2.4 µM)	0.25 (≈ 0.599 µM)	0.016 (≈ 0.0383 µM)	4 (≈ 9.58 µM)	0.5 (≈ 1.2 µM)	0.063 (≈ 0.151 µM)	Cc1c(-c2cccc(CN3CCNCC3)c2)ccn2c(=O)c(C(=O)O)cc(C3CC3)c12 [Example 119, 1-Cyclopropyl-9-methyl-4-oxo-8-(3-piperazin-1-ylmethylphenyl)-4H-quinolizine-3-carboxylic acid]	–
0.5 (≈ 1.32 µM)	4 (≈ 10.6 µM)	0.25 (≈ 0.661 µM)	0.063 (≈ 0.166 µM)	0.016 (≈ 0.0423 µM)	≤ 0.004	0.063 (≈ 0.166 µM)	0.031 (≈ 0.0819 µM)	0.063 (≈ 0.166 µM)	0.016 (≈ 0.0423 µM)	0.125 (≈ 0.33 µM)	0.031 (≈ 0.0819 µM)	0.25 (≈ 0.661 µM)	0.008 (≈ 0.0211 µM)	≤ 0.004	0.5 (≈ 1.32 µM)	0.031 (≈ 0.0819 µM)	0.016 (≈ 0.0423 µM)	COc1ccc(-c2ccn3c(=O)c(C(=O)O)cc(C4CC4)c3c2C)cc1CN [Example 121, 8-(3-Aminomethyl-4-methoxyphenyl)-1-cyclopropyl-9-methyl-4-oxo-4H-quinolizine-3-carboxylic acid]	–

SMILES	MIC [1] [µg/mL]	MIC [2, 19] [µg/mL]	MIC [3] [µg/mL]	MIC [4] [µg/mL]	MIC [5] [µg/mL]	MIC [6] [µg/mL]	MIC [7] [µg/mL]	MIC [8] [µg/mL]	MIC [9] [µg/mL]	MIC [10] [µg/mL]	MIC [11] [µg/mL]	MIC [12] [µg/mL]	MIC [13] [µg/mL]	MIC [14] [µg/mL]	MIC [15] [µg/mL]	MIC [16] [µg/mL]	MIC [17] [µg/mL]	MIC [18] [µg/mL]	MIC ([2]; Bacteroides thetaiotaomicron, ATCC29741, read-out: Antimicrobial spectrum MIC) [µg/mL]
C[C@H]1COc2c(N3CCN(C)CC3)c(F)cc3c(=O)c(C(=O)O)cn1c23 [Levofloxacin, reference compound]	0.5 (≈ 1.38 µM)	–	0.25 (≈ 0.692 µM)	1 (≈ 2.77 µM)	0.125 (≈ 0.346 µM)	0.008 (≈ 0.0221 µM)	0.031 (≈ 0.0858 µM)	0.25 (≈ 0.692 µM)	0.031 (≈ 0.0858 µM)	0.125 (≈ 0.346 µM)	1 (≈ 2.77 µM)	0.5 (≈ 1.38 µM)	4 (≈ 11.1 µM)	0.016 (≈ 0.0443 µM)	0.031 (≈ 0.0858 µM)	0.5 (≈ 1.38 µM)	0.5 (≈ 1.38 µM)	0.25 (≈ 0.692 µM)	4 (≈ 11.1 µM)

— patent US7223773B2, “4-oxoquinolizine antibacterial agent having 2-pyridone skeleton as partial structure” (Salo Pharmaceutical Co., Ltd., priority 2001, dated 2007)
